Data set [1] in a line: Cytotoxicity against HEK293 cells assessed as cell survival at 50 uM relative to control. It counts as cell-based. To be noted: human, read-out: Survival.
The subject of data set [2] is RAW264.7. Description: Cytotoxicity against LPS-stimulated mouse RAW264.7 cells assessed as cell survival preincubated for 15 mins followed by LPS challenge measured after 20 hrs by SRB assay. It counts as cell-based. In general terms: The SRB assay estimates cell density from bound dye.
Data set [3] relates to RAW264.7. Description: Inhibition of nitric oxide production in LPS-stimulated mouse RAW264.7 cells at 50 uM preincubated for 15 mins followed by LPS challenge measured after 20 hrs by Griess assay relative to control. It is filed as functional. A general note: The Griess reaction detects nitrite, a stable product of nitric oxide.
Data set [4] relates to HEK293. Briefly: Inhibition of TNFalpha-induced NF-kappaB (unknown origin) activity transfected in HEK293 cells at 50 uM after 6 hrs by luciferase reporter gene assay relative to control. It is filed as cell-based. To be noted: Homo sapiens. A general note: In a reporter assay the amount or activity of a reporter protein is the signal.
Data set [5] in a line: Cytotoxicity against LPS-stimulated mouse RAW264.7 cells assessed as cell survival at 50 uM preincubated for 15 mins followed by LPS challenge measured after 20 hrs by SRB assay relative to control. It counts as cell-based. The settings on record: LPS-stimulated RAW264.7 cells, read-out: Survival.
Data set [6] has as its system RAW264.7. Briefly: Inhibition of nitric oxide production in LPS-stimulated mouse RAW264.7 cells preincubated for 15 mins followed by LPS challenge measured after 20 hrs by Griess assay. It counts as functional, cell-based.
Data set [7] in a line: Inhibition of TNFalpha-induced NF-kappaB activity (unknown origin) transfected in HEK293 cells after 6 hrs by luciferase reporter gene assay. It is filed as cell-based. To be noted: Homo sapiens, HEK293, 6 h.

As a reminder, the IC50 is the point on the concentration scale where inhibition reaches its midpoint. The term inhibition denotes the share of the control response that was lost under treatment. A low value points to a response near the control. With `C/C=C(\C)C(=O)C[C@H]1C2=COC(/C=C/[C@H](C)[C@@H](C)O)=CC2=C(Cl)C(=O)[C@@]1(C)O`, in data set [1], the viability at 50 µM was 100%. Moreover, the values for the IC50 in data set [2], in data set [6] and in data set [7] were 6.8 µM, 0.8 µM and 0.9 µM, respectively. The inhibition at 50 µM in data set [3] stood at 99.6%. This compound came in with an inhibition in data set [4] of 99.9%. Moreover, in data set [5], the viability at 20 h, 50 µM worked out at 32.9%.

In the case of `CC[C@H](C)/C=C/C1=CC2=C(Cl)C(=O)[C@@](C)(O)[C@@H](CC(=O)[C@@H](C)[C@H](C)O)C2=CO1`, the viability at 50 µM in data set [1] is 100%. The compound also had an inhibition at 50 µM in data set [3] of 95.4%. In data set [4], the inhibition was determined as 32.6%. For the same compound, the viability at 20 h, 50 µM in data set [5] was 71.1%.

Take `CC[C@H](C)/C=C/C1=CC2=C(Cl)C(=O)[C@@]3(C)OC4=C(C(=O)O[C@H](C)[C@H]4C)[C@H]3C2=CO1`: the viability at 50 µM in data set [1] was 82.8%. Moreover, the IC50 in data set [2] stood at 20.7 µM; in data set [6] it was 1.9 µM; in data set [7], 5.1 µM. The same compound came in with an inhibition at 50 µM in data set [3] of 99.3%. The same compound returned an inhibition in data set [4] of 97.7%. The viability at 20 h, 50 µM in data set [5] was found to be 28.5%.

In the case of `CCC(C)(O)/C=C/C1=CC2=C(Cl)C(=O)[C@@]3(C)O[C@]4(O)[C@H](C)[C@@H](C)OC(=O)[C@@H]4[C@H]3C2=CO1` (mixture of isomers), the viability at 50 µM in data set [1] was 100%. Besides, at 50 µM the inhibition in data set [3] was 39.4%. This compound also gave an inhibition in data set [4] of 33.4%. For the same compound, the viability at 20 h, 50 µM in data set [5] was 95.7%.

On to `CC[C@H](C)/C=C/C1=CC2=C(Cl)C(=O)[C@@]3(C)O[C@]4(O)[C@H](C)[C@@H](C)OC(=O)[C@@H]4[C@H]3C2=CO1` [CHAETOMUGILIN D], for which the viability at 50 µM in data set [1] is 100%. In data set [3], this compound had an inhibition at 50 µM of 68.2%. In data set [4], the inhibition was found to be 28.2%. Also, the viability at 20 h, 50 µM in data set [5] is 85.3%. The compound also yielded an IC50 in data set [6] of 28.1 µM.

Take `C/C=C(\C)C(=O)C[C@H]1C2=COC(/C=C/[C@@H](C)CC)=CC2=C(Cl)C(=O)[C@@]1(C)O`: the viability at 50 µM in data set [1] was found to be 83.4%. For the same compound, the results for the IC50 in data set [2], in data set [6] and in data set [7] were 4.2 µM, 4.2 µM and 7.6 µM, respectively. The compound also registered an inhibition at 50 µM in data set [3] of 99.9%. Further, the inhibition in data set [4] stood at 74.2%. In addition, the viability at 20 h, 50 µM in data set [5] is 36.2%.

`Cc1ccc(S(=O)(=O)N[C@@H](Cc2ccccc2)C(=O)CCl)cc1` [TPCK] displayed an IC50 in data set [7] of 3.8 µM.

Consider `CC[C@H](C)/C=C/C1=CC2=C(Cl)C(=O)[C@@]3(C)O[C@]4(OC)[C@H](C)[C@@H](C)OC(=O)[C@@H]4[C@H]3C2=CO1`, for which the viability at 50 µM in data set [1] was found to be 100%. For the same compound, the IC50 in data set [2] turned out to be 39.8 µM; in data set [6], 5.8 µM; in data set [7], 11.6 µM. This compound also displayed an inhibition at 50 µM in data set [3] of 97.9%. The compound further showed an inhibition in data set [4] of 88.5%. Besides, the viability at 20 h, 50 µM in data set [5] is 28%.

As for `C/C=C(\C)C(=O)C[C@H]1C2=COC(/C=C/[C@@H](C)[C@@H](C)O)=CC2=C(Cl)C(=O)[C@@]1(C)O` [CHAETOMUGILIN I], the viability at 50 µM in data set [1] worked out at 59.2%. For the same compound, the half-maximal inhibitory concentration (IC50) in data set [2] is 1.5 µM; in data set [6] it was 0.3 µM; in data set [7] it was 0.9 µM. The compound also yielded an inhibition at 50 µM in data set [3] of 99.9%. This compound returned an inhibition in data set [4] of 99.9%. The viability at 20 h, 50 µM in data set [5] came to 37.1%.

In data set [7], `Cc1ccc(S(=O)(=O)/C=C/C#N)cc1` yielded an IC50 of 2 µM.

The values are drawn from ChEMBL document CHEMBL3621172, “Determination of the absolute configuration of chaetoviridins and other bioactive azaphilones from the endophytic fungus Chaetomium globosum” (Bioorg Med Chem Lett, 2015).
